Reference: patent publication US8883841B2, “Oncogenic ras-specific cytotoxic compound and methods of use thereof” (The Board of Regents of the University of Texas System, priority 2005, dated 2014)

Columns and labels:
[1] = test system: TNFα-mediated NFκB activation; test: Electrophoretic mobility shift assay (EMSA) of NFκB activity; assay type: cell-based, human; conditions: 12 h, TNFα 1 ng/ml
Procedure: FIGS. 11A-11C Suppression of TNFα-induced NFκB activation. NKκB reporter plasmid assay. T29K cells were transfected with pNFκB-Luc and pCMV-lacZ. 12 h later, the cells were treated with TNFα (1 ng/ml) with or without (FIG. 11A) Oncrasin-1 (10 μM) or (FIG. 11B) Sulindac (10 μm). The luciferase activity was determined at 8 h after the treatment and normalized with beta-gal activity. (FIG. 11C) H460 and T29K cells were treated with DMSO or different concentrations of Oncrasin-1 as indicated for 12 h, with or without TNFα (1 ng/ml). The NFκB activity was analyzed by EMSA.
Suppression of NFκB. In a separated study, the effect of Oncrasin compounds on NF-κB activity was assessed. Nuclear factor-κB (NF-κB)/Rel represents a group of structurally related and evolutionarily conserved transcriptional factors that play critical roles in chronic and acute inflammatory diseases, autoimmune diseases and various type of cancers (Karin and Neriah, 2000; Karin and Karin, 2006; Barnes et al., 1997). In unstimulated cells, most NF-κB/Rel dimers are bound to IκBs and retained in the cytoplasm. Upon a various stimulations, IκBs are phosphorylated and rapidly degraded, releasing NF-κB, which then enters the nucleus and executes transcriptional functions. […] The luciferase activity was determined and normalized for transfection with beta-galactosidase activity. […]

H460 cells = test: PKCiota siRNA knockdown, apoptosis by FACS in H460 cells; assay type: cell-based, human; conditions: 1 μM, 12 h
Procedure: Knockdown of PKCiota suppressed Oncrasin-mediated apoptosis and cytotoxicity. To investigate possible role of PCKiota in Oncrasin-1 mediated cytotoxicity, PKCiota was knocked down in H460 cells by using oligo ribonucleotides. H460 cells were treated with 200 pM PKCiota siRNA for 24 h, and then with DMSO or 1 μM Oncrasin for another 12 h. After that, cells harvested for analysis of apoptosis by fluorescence-activated cell sorting (FACS) and for expression of PKCiota by Western blot analysis. […] To further study the effect of atypical PKC in Oncrasin-induced cytotoxicity, the inventors obtained plasmids encoding PKCiota and PKCzeta siRNA from Origene Corporation and made stable PKCiota and PKCzeta knockdown T29Kt1 cells. […] The IC50 in PKCiota knockdown T29Kt1 cells were 100 fold higher than parental T29K cells. […] Thus, compounds with synthetic lethality for PKCiota might be useful for treatment of those cancers.

[2] = test system: Raf-1, Akt, PKCzeta, PKCdelta, and p53; test: Immunohistochemical staining, subcellular localization of Raf-1, Akt, PKCzeta, PKCdelta, p53; assay type: cell-based, human; conditions: T29Kt1 or H460 cells, 12 h
Procedure: Effects on subcellular localization of PKCiota. […] To further investigate molecular mechanisms of Oncrasin action the inventors studied the subcellular localization of several molecules involved in Ras-signaling pathway because the functions of Ras and other proteins are directly related to their subcellular localizations. For this purpose, T29Kt1 or H460 cells were seeded on cover glass slides and treated with DMSO or Oncrasin-1 for 12 h. Cells were then fixed with paraformaldehyde, permeabilized with Triton X-100 and stained with various antibodies for immunohistochemical examination. […] Nevertheless, substantial subcellular localization change was detected for PKCiota after Oncrasin-1 treatment (FIG. 6). In both H460 and T29Kt1 cells, both PKCiota and PKCzeta were diffusely distributed in cells with high concentration on cell membrane in nucleus, consisting with previous reports that aPKC contains both nuclear localization signal (NLS) and nuclear export signal (NES), and can shuttle between cytoplasm and nucleus, which was regulated by intramolecular conformational changes, phosphorylation or by treatment with growth factors (Perander et al., 2001; White et al., 2002; Neri et al., 1999). […] Such aggregation of PKCiota was not observed in Oncrasin-resistant T29 and H1299 cells. […]

wild-type MEF = test: Icmt-dependent growth inhibition, wild-type MEF; assay type: cell-based, mouse; conditions: up to 100 μM
Description: Oncrasin and Oncrasin Analogs. Chemically, Oncrasin-1 has the same core structure as indole-3-carbinol, a naturally occurring constituent of many plant foods that has been tested for the prevention and treatment of cancer (Brignall, 2001; Kelloff et al., 1996; Chinni et al., 2001). Oncrasin-1 also has structural similarity to sulindac (Taylor et al., 2000; Sun et al., 2002) and lonidamine (Ravagnan et al., 1999; Papaldo et al., 2003), both of which have been evaluated preclinically and clinically for treatment of cancers. […] Oncrasin compounds also bear a indole core structure as the small-molecule inhibitor of isoprenylcysteine carboxylmethyltransferase (Icmt), 2-[5-(3-methylphenyl)-1-octyl-1H-indol-3-yl]acetamide (cysmethynil), which also induces antitumor activity in Ras gene mutant cancer cells (Winter-Vann et al., 2005). […] Both wild-type MEF and Icmt−/− MEF (Bergo et al., 2004) (kindly provided by Dr. S G Young at the University of California, San Francisco) were resistant to Oncrasin-1.

## O=Cc1cn(Cc2ccc(Cl)cc2)c2ccccc12 [Oncrasin K001, 1H-Indole-3-carboxaldehyde, 1-[(4-chlorophenyl)methyl]-(9CI)]
[1]
  concentration that effectively suppresses TNFα-mediated NFκB activation, H460 cells: ≥ 1 µM
  concentration that effectively suppresses TNFα-mediated NFκB activation, T29Kt1 cells: ≥ 1 µM
H460 cells
  apoptosis in H460 cells after knockdown of PKCiota by siRNA: dramatically suppressed Oncrasin-induced apoptosis
[2]
  subcellular localization of Raf-1, Akt, PKCzeta, PKCdelta, and p53: did not induce obvious changes
wild-type MEF
  growth inhibition, wild-type MEF: resistant
